Experimental data: US6391902B1, “Substituted benzofuranoindoles and indenoindoles as novel potassium channel openers” (American Home Products Corporation, priority 1998, dated 2002)
Marks after values point to notes of the source that are not given here.

What was measured:
[1] = test system: Bladder Tissue; assay: Relaxation of KCl-stimulated isolated rat bladder strips (contractile activity); parameters: species or system Sprague-Dawley rats; details: for inhibition at 30 µM: read-out: Bladder Tissue I = Percent inhibition at 30 μM
Procedure: Sprague-Dawley rats (150-200 g) are rendered unconscious by CO2 asphyxiation and then euthanized by cervical dislocation. The bladder is removed into warm (37° C.) physiological salt solution (PSS) of the following composition (mM): NaCl, 118.4; KCl, 4.7; CaCl2, 2.5; […]; NaHCO3, 24.9; KH2PO4, 1.2; glucose, 11.1; EDTA, 0.023; gassed with 95% O2; […]; pH 7.4. The bladder is opened and then cut into strips 1-2 mm in width and 7-10 mm in length. The strips are subsequently suspended in a 10 mL tissue bath under an initial resting tension of 1.5 g. The strips are held in place by two surgical clips one of which is attached to a fixed hook while the other is attached to an isometric force transducer. […] The carbachol is then washed out and the tissue allowed to relax to its resting level of activity. Following a further 30 min period of recovery an additional 15 mM KCl re introduced into the tissue bath. […] Following stabilization of this enhanced level of contractile activity, incremental increases in the concentration of test compound or vehicle are introduced into the tissue bath. Contractile activity is measured for each compound or vehicle concentration during the last minute of a 30 minute challenge.

[2] = rat bladder strips, additional 15 mM KCl, 30 μM test compound

SMILES	melting point	inhibition at 30 µM [1, 2] [%]	further results
N#Cc1cccc2c1[nH]c1c3cc(Br)ccc3oc21.O (hydrate or solvate) [Example 10, 8-Bromo-10H-benzo[4,5]furo[3,2-b]indole-1-carbonitrile hydrate]	277 to 280 °C (dec.)	–	–
O=C(O)c1cccc2c1Cc1c-2[nH]c2ccc(I)cc12 [Example 17, 8-Iodo-5,10-dihydro-indeno[1,2-b]indole-1-carboxylic acid 0.6 hydrate]	–	–	IC50 ([1]; rat bladder strips, additional 15 mM KCl, 50% inhibition of pre-drug contractile activity, 30 minute challenge): 10.1 ± 3.2 µM
O.O.O=C(O)c1cccc2c1[nH]c1c3cc([N+](=O)[O-])ccc3oc21 (hydrate or solvate) [Example 4, 8-Nitro-10H-benzo[4,5]furo[3,2-b]indole-1-carboxylic acid dihydrate]	325 °C (dec.)	–	–
CCC(C)(C)NC(=O)c1cccc2c1[nH]c1c3cc(Br)ccc3oc21 [Example 13, 8-Bromo-10H-benzo[4,5]furo[3,2-b]indole-1-carboxylic acid (1,1-dimethyl-propyl)-amide]	242 to 244 °C (dec.)	28.5	–
COC(=O)c1cccc2c1[nH]c1c3cc(Br)ccc3oc21 [Example 6, 8-Bromo-10H-benzo[4,5]furo[3,2-b]indole-1-carboxylic acid methyl ester]	204 to 205 °C	31	–
O=Cc1cccc2c1[nH]c1c3cc(Br)ccc3oc21 [Example 9, 8-Bromo-10H-benzo[4,5]furo[3,2-b]indole-1-carbaldehyde]	280 to 281 °C	19	–
OCc1cccc2c1[nH]c1c3cc(Br)ccc3oc21 [Example 7, (8-Bromo-10H-benzo[4,5]furo[3,2-b]indol-1-yl)-methanol]	218 to 219 °C	–	–
NC(=O)c1cccc2c1[nH]c1c3cc(Br)ccc3oc21 [Example 5, 8-Bromo-10H-benzo[4,5]furo[3,2-b]indole-1-carboxylic acid amide]	300 to 301 °C	13.5	–
NS(=O)(=O)c1ccc2[nH]c3c(c2c1)Cc1c(C(=O)O)cccc1-3.NS(=O)(=O)c1ccc2[nH]c3c(c2c1)Cc1c(C(=O)O)cccc1-3.O [Example 18, 8-Sulfamoyl-5,10-dihydro-indeno[1,2-b]indole-1-carboxylic acid hemi-hydrate]	–	–	Bladder Tissue I = Percent inhibition at 30 μM [1, 2]: I = 5.2%*
N#Cc1cccc2c1[nH]c1c3cc(Br)ccc3oc21 [Example 10, 8-Bromo-10H-benzo[4,5]furo[3,2-b]indole-1-carbonitrile hydrate]	–	10.1	–
CNC(=O)c1cccc2c1[nH]c1c3cc(Br)ccc3oc21 [Example 14, 8-Bromo-10H-benzo[4,5]furo[3,2-b]indole-1-carboxylic acid methylamide]	264 to 265 °C (dec.)	4.8	–

The next lines start with results.

melting point	SMILES	inhibition at 30 µM [1, 2] [%]	further results
198 to 200 °C	CCOC(=O)c1cccc2c1Cc1c-2[nH]c2ccc(Br)cc12 [Example 23, 8-Bromo-5,10-dihydro-indeno[1,2-b]indole-1-carboxylic acid ethyl ester]	20	–
195 to 196 °C	COC(=O)c1cccc2c3oc4ccc(Br)cc4c3n(C)c12 [Example 15, 8-Bromo-10-methyl-10H-benzo[4,5]furo[3,2-b]indole-1-carboxylic acid methyl ester]	4.5	–
256 to 265 °C (dec.)	O=C(O)c1cccc2c1Cc1c-2[nH]c2ccc(OC(F)(F)F)cc12 [Example 21, 8-Trifluoromethoxy-5,10-dihydro-indeno[1,2-b]indole-1-carboxylic acid]	–	IC50 ([1]; Rattus norvegicus, 0.5 h): 15.4 ± 4.8 µM
279 to 280 °C (dec.)	O=C(O)c1cccc2c1[nH]c1c3ccccc3oc21 [Example 16, 10H-Benzo[4,5]furo[3,2-b]indole-1-carboxylic acid]	–	IC50 ([1]; Rattus norvegicus, 0.5 h): 31 ± 6.5 µM
> 300 °C	O=C(O)c1cccc2c1Cc1c-2[nH]c2ccc(Cl)cc12 [Example 20, 8-Chloro-5,10-dihydro-indeno[1,2-b]indole-1-carboxylic acid]	–	IC50 ([1]; Rattus norvegicus, 0.5 h): 22.6 ± 1.8 µM
